A word on the EC50: it is the concentration needed to bring the measured effect to its halfway point.

Common to all, as to type: cell-based
Assay [1] concerns HCV genotype 2a (HCV cell culture system, HCVcc). Briefly: HCVcc genotype 2a JFH1 (JFH 5a-Rluc) virus in Huh7.5.1 cells, luciferase assay. The following applies: Hepatitis C virus, Huh-7.5.1, 72 h, HCV genotype 2a JFH 5a-Rluc, 3 days, read-out: Replicon EC50 2a type. On the procedure: (§1) From human liver cells (Huh7.5.1 cell) infected by hepatitis C virus, the anti-virus effects by the compound of the present invention were measured. From HCV genotype 1 b (HCV replicon system), genotype 2a (HCV cell culture system, HCVcc), and genotype 3a, the EC50 values were measured.
In order to measure the EC50 value from HCV genotype 2a, a luciferase assay was used. A JFH1 clone (JFH 5a-Rluc) virus constructed to have a Renilla luciferase enzyme (Rluc) gene in NS5A protein was infected with Huh7.5.1 cell being a host cell, and then the EC50 value was measured by taking cells grown for 3 days by treating the experimental compound under various concentration conditions, and analyzing the activity degree of the luciferase.
On the technique in general: A replicon is a self-replicating genome or part of one, used to study replication in cells.

In assay [2] the test system is HCV genotype 1 b (HCV replicon system). Briefly: HCV replicon system genotype 1b, Renilla luciferase activity. Particulars: Hepatitis C virus, 72 h, HCV genotype 1b replicon, Rluc, 3 days, read-out: Replicon EC50 1b type. The procedure: as §1
In order to measure the EC50 value from HCV genotype 1 b, the degrees of HCV replication inhibitory activities of an experimental compound were measured. The EC50 value was measured by treating the experimental compound with the HCV replicon systems (genotype 1 b) having Renilla luciferase (Rluc) genes and genotype 1 b non-structure genes under various concentration conditions to compare the activity degree of the luciferase after 3 days elapsed time with that of the control.

For assay [3], the system named is HCV genotype 3a (HCV replicon system). Briefly: HCV replicon system genotype 3a, firefly luciferase activity. Particulars: Hepatitis C virus, 72 h, HCV genotype 3a replicon, Fluc, 3 days, read-out: Replicon EC50 3a type. The procedure:
as §1
In order to measure the EC50 value from genotype 3a, the value was measured through the luciferase activity. A HCV replicon system having firefly luciferase (Fluc) genes and genotype 3a non-structure genes was used. The HCV replicon system having the genes as described above was used to treat the experimental compound under various concentration conditions, and then 3 days later, the EC50 value was measured by comparing the luciferase activity with that of the control.

Setting [4] is: range limits given with own units (pM to nM).

Read-outs that look alike come from different tables or passages of the source.

Regarding `CCCCCCCCCCn1c2cc(NC(=O)[C@@H]3CCCN3C(=O)[C@H](NC(=O)OC)c3ccccc3)ccc2c2ccc(NC(=O)[C@@H]3CCCN3C(=O)[C@H](NC(=O)OC)c3ccccc3)cc21` [Example 24, dimethyl ((1R,1′R)-((2S,2′S)-(((9-decyl-9H-carbazole-2,7-diyl)bis(azanediyl))bis(carbonyl))bis(pyrrolidine-2,1-diyl))bis(2-oxo-1-phenylethane-2,1-diyl))dicarbamate], the EC50 was 10 to 100 nM in assay [1] and about 10 pM in assay [2].

As for `CCCCCCCC(c1ccccc1)n1c2cc(NC(=O)[C@@H]3CCCN3C(=O)[C@H](NC(=O)OC)c3ccccc3)ccc2c2ccc(NC(=O)[C@@H]3CCCN3C(=O)[C@H](NC(=O)OC)c3ccccc3)cc21` (stereo partly drawn) [Example 29, dimethyl ((1R,1′R)-((2S,2′S)-(((9-(1-phenyloctyl)-9H-carbazole-2,7-diyl)bis(azanediyl))bis(carbonyl))bis(pyrrolidine-2,1-diyl))bis(2-oxo-1-phenylethane-2,1-diyl))dicarbamate], the EC50 in assay [1] fell in the range of 1 to 10 nM; in assay [2] it was 10 to 100 pM; in assay [3], 10000 to 100000 pM.

Take `CCCCCOc1cccc(Cn2c3cc(NC(=O)[C@@H]4CCCN4C(=O)[C@H](NC(=O)OC)c4ccccc4)ccc3c3ccc(NC(=O)[C@@H]4CCCN4C(=O)[C@H](NC(=O)OC)c4ccccc4)cc32)c1` [Example 30, dimethyl ((1R,1′R)-((2S,2′S)-(((9-(3-(pentyloxy)benzyl)-9H-carbazole-2,7-diyl)bis(azanediyl))bis(carbonyl))bis(pyrrolidine-2,1-diyl))bis(2-oxo-1-phenylethane-2,1-diyl))dicarbamate]: the EC50 in assay [1] is about 1 nM; in assay [2], 10 to 100 pM; in assay [3], 71 pM.

As for `CCCCOc1ccccc1Cn1c2cc(NC(=O)[C@@H]3CCCN3C(=O)[C@H](NC(=O)OC)c3ccccc3)ccc2c2ccc(NC(=O)[C@@H]3CCCN3C(=O)[C@H](NC(=O)OC)c3ccccc3)cc21` [Example 32, dimethyl ((1R,1′R)-((2S,2′S)-(((9-(2-butoxybenzyl)-9H-carbazole-2,7-diyl)bis(azanediyl))bis(carbonyl))bis(pyrrolidine-2,1-diyl))bis(2-oxo-1-phenylethane-2,1-diyl))dicarbamate], the EC50 is 1 to 10 nM in assay [1] and 100 to 1000 pM in assay [2] (setting [4]).

As to `COC(=O)N[C@@H](C(=O)N1CCC[C@H]1C(=O)Nc1ccc2c3ccc(NC(=O)[C@@H]4CCCN4C(=O)[C@H](NC(=O)OC)c4ccccc4)cc3n(CCCCCCCCCCN3CCN(C)CC3)c2c1)c1ccccc1` [Example 33, dimethyl ((1R,1′R)-((2S,2′S)-(((9-(10-(4-methylpiperazine-1-yl)decyl)-9H-carbazole-2,7-diyl)bis(azanediyl))bis(carbonyl))bis(pyrrolidine-2,1-diyl))bis(2-oxo-1-phenylethane-2,1-diyl))dicarbamate], the EC50 in assay [2] (setting [4]) and in assay [3] (setting [4]) was 100 to 1000 pM throughout.

As to `COC(=O)N[C@@H](C(=O)N1CCC[C@H]1C(=O)Nc1ccc2c3ccc(NC(=O)[C@@H]4CCCN4C(=O)[C@H](NC(=O)OC)c4ccccc4)cc3n(Cc3cccc([N+](=O)[O-])c3)c2c1)c1ccccc1` [Example 37, dimethyl ((1R,1′R)-((2S,2′S)-(((9-(3-nitrobenzyl)-9H-carbazole-2,7-diyl)bis(azanediyl))bis(carbonyl))bis(pyrrolidine-2,1-diyl))bis(2-oxo-1-phenylethane-2,1-diyl))dicarbamate], the EC50 was found to be 14.5 pM in assay [2] and 87.4 pM in assay [3].

Regarding `COC(=O)N[C@@H](C(=O)N1CCC[C@H]1C(=O)Nc1ccc2c3ccc(NC(=O)[C@@H]4CCCN4C(=O)[C@H](NC(=O)OC)c4ccccc4)cc3n(Cc3cccc(NC(=O)C(C)(C)C)c3)c2c1)c1ccccc1` [Example 38, dimethyl ((1R,1′R)-((2S,2′S)-(((9-(3-pivalamidobenzyl)-9H-carbazole-2,7-diyl)bis(azanediyl))bis(carbonyl))bis(pyrrolidine-2,1-diyl))bis(2-oxo-1-phenylethane-2,1-diyl))dicarbamate], the EC50 in assay [2] came out at 35.4 pM; in assay [3] it was 81.9 pM.

With `COC(=O)N[C@@H](C(=O)N1CCC[C@H]1C(=O)Nc1ccc2c3ccc(NC(=O)[C@@H]4CCCN4C(=O)[C@H](NC(=O)OC)c4ccccc4)cc3n(Cc3ccccc3C(F)(F)F)c2c1)c1ccccc1` [Example 43, dimethyl ((1R,1′R)-((2S,2′S)-(((9-(2-(trifluoromethyl)benzyl)-9H-carbazole-2,7-diyl)bis(azanediyl))bis(carbonyl))bis(pyrrolidine-2,1-diyl))bis(2-oxo-1-phenylethane-2,1-diyl))dicarbamate], the EC50 was over 10 nM in assay [1] and about 10 pM in assay [2].

Take `COC(=O)N[C@@H](C(=O)N1CCC[C@H]1C(=O)Nc1ccc2c3ccc(NC(=O)[C@@H]4CCCN4C(=O)[C@H](NC(=O)OC)c4ccccc4)cc3n(Cc3cccc(C(F)(F)F)c3)c2c1)c1ccccc1` [Example 44, dimethyl ((1R,1′R)-((2S,2′S)-(((9-(3-(trifluoromethyl)benzyl)-9H-carbazole-2,7-diyl)bis(azanediyl))bis(carbonyl))bis(pyrrolidine-2,1-diyl))bis(2-oxo-1-phenylethane-2,1-diyl))dicarbamate]: the EC50 in assay [1] was over 10 nM; in assay [2], about 10 pM; in assay [3], 10 to 100 pM.

With `COC(=O)N[C@@H](C(=O)N1CCC[C@H]1C(=O)Nc1ccc2c3ccc(NC(=O)[C@@H]4CCCN4C(=O)[C@H](NC(=O)OC)c4ccccc4)cc3n(Cc3ccc(C(F)(F)F)cc3)c2c1)c1ccccc1` [Example 45, dimethyl ((1R,1′R)-((2S,2′S)-(((9-(4-(trifluoromethyl)benzyl)-9H-carbazole-2,7-diyl)bis(azanediyl))bis(carbonyl))bis(pyrrolidine-2,1-diyl))bis(2-oxo-1-phenylethane-2,1-diyl))dicarbamate], the EC50 in assay [1] was over 10 nM; in assay [2], about 10 pM; in assay [3], 199 pM.

Regarding `COC(=O)N[C@@H](C(=O)N1CCC[C@H]1C(=O)Nc1ccc2c3ccc(NC(=O)[C@@H]4CCCN4C(=O)[C@H](NC(=O)OC)c4ccccc4)cc3n(CC3CCCC3)c2c1)c1ccccc1` [Example 47, dimethyl ((1R,1′R)-((2S,2′S)-(((9-(cyclopentylmethyl)-9H-carbazole-2,7-diyl)bis(azanediyl))bis(carbonyl))bis(pyrrolidine-2,1-diyl))bis(2-oxo-1-phenylethane-2,1-diyl))dicarbamate], the EC50 in assay [2] is about 10 pM.

Consider `COC(=O)N[C@@H](C(=O)N1CCC[C@H]1C(=O)Nc1ccc2c3ccc(NC(=O)[C@@H]4CCCN4C(=O)[C@H](NC(=O)OC)c4ccccc4)cc3n(CC3CCCCC3)c2c1)c1ccccc1` [Example 48, dimethyl ((1R,1′R)-((2S,2′S)-(((9-(cyclohexylmethyl)-9H-carbazole-2,7-diyl)bis(azanediyl))bis(carbonyl))bis(pyrrolidine-2,1-diyl))bis(2-oxo-1-phenylethane-2,1-diyl))dicarbamate], for which the EC50 came out at 7.41 pM in assay [2] and 161 pM in assay [3].

Consider `COC(=O)N[C@@H](C(=O)N1CCC[C@H]1C(=O)Nc1ccc2c3ccc(NC(=O)[C@@H]4CCCN4C(=O)[C@H](NC(=O)OC)c4ccccc4)cc3n(C(C3CC3)C3CC3)c2c1)c1ccccc1` [Example 49, dimethyl ((1R,1′R)-((2S,2′S)-(((9-(dicyclopropylmethyl)-9H-carbazole-2,7-diyl)bis(azanediyl))bis(carbonyl))bis(pyrrolidine-2,1-diyl))bis(2-oxo-1-phenylethane-2,1-diyl))dicarbamate], for which the EC50 in assay [1] is over 10 nM; in assay [2], 8.4 pM; in assay [3] it was 76.6 pM.

With `COC(=O)N[C@@H](C(=O)N1CCC[C@H]1C(=O)Nc1ccc2c3ccc(NC(=O)[C@@H]4CCCN4C(=O)[C@H](NC(=O)OC)c4ccccc4)cc3n(CCc3ccccc3)c2c1)c1ccccc1` [Example 50, dimethyl ((1R,1′R)-((2S,2′S)-(((9-phenethyl-9H-carbazole-2,7-diyl)bis(azanediyl))bis(carbonyl))bis(pyrrolidine-2,1-diyl))bis(2-oxo-1-phenylethane-2,1-diyl))dicarbamate], the EC50 in assay [2] came to 4.34 pM; in assay [3], 183 pM.

With `CCCCn1c2cc(NC(=O)[C@@H]3CCCN3C(=O)[C@@H](NC(=O)OC)C(C)C)ccc2c2ccc(-c3c[nH]c([C@@H]4CCCN4C(=O)[C@@H](NC(=O)OC)C(C)C)n3)cc21` [Example 53, methyl ((S)-1-((S)-2-((9-butyl-7-(2-((S)-1-((methoxycarbonyl)-L-valyl)pyrrolidine-2-yl)-1H-imidazole-4-yl)-9H-carbazole-2-yl)carbamoyl)pyrrolidine-1-yl)-3-methyl-1-oxobutane-2-yl)carbamate], the EC50 in assay [2] was over 10000 pM.
